From the supplement of paper PMC13380429
± gives the standard deviation of the averaged measurements.

Key:
Settings in all cases: 72 h
U2OS [1] = test: drug sensitivity score (DSS) for viability; higher = more toxic; extreme values may be limits of the assay
Vero E6 [2] = test: as above
Caco-2 [3] = test: as above
Calu-3 [4] = test: as above
HepG2 [5] = test: as above
U2OS [6] = test: cell viability relative to DMSO; higher = less toxic
Vero E6 [7] = test: as above
Caco-2 [8] = test: as above
Calu-3 [9] = test: as above
HepG2 [10] = test: as above
U2OS [11] = test: relative viability EC50 (midpoint between 100% and the lowest measured viability); higher = less toxic
Vero E6 [12] = test: as above
Caco-2 [13] = test: as above
Calu-3 [14] = test: as above
HepG2 [15] = test: as above

SMILES	drug sensitivity score (U2OS [1])	drug sensitivity score (Vero E6 [2])	drug sensitivity score (Caco-2 [3])	drug sensitivity score (Calu-3 [4])	drug sensitivity score (HepG2 [5])	cell viability (U2OS [6]; 1 nM)	cell viability (U2OS [6]; 10 nM)	cell viability (U2OS [6]; 100 nM)	cell viability (U2OS [6]; 1000 nM)	cell viability (U2OS [6]; 10000 nM)	cell viability (Vero E6 [7]; 1 nM)	cell viability (Vero E6 [7]; 10 nM)	cell viability (Vero E6 [7]; 100 nM)	cell viability (Vero E6 [7]; 1000 nM)	cell viability (Vero E6 [7]; 10000 nM)	cell viability (Caco-2 [8]; 1 nM)	cell viability (Caco-2 [8]; 10 nM)	cell viability (Caco-2 [8]; 100 nM)	cell viability (Caco-2 [8]; 1000 nM)	cell viability (Caco-2 [8]; 10000 nM)	cell viability (Calu-3 [9]; 1 nM)	cell viability (Calu-3 [9]; 10 nM)	cell viability (Calu-3 [9]; 100 nM)	cell viability (Calu-3 [9]; 1000 nM)	cell viability (Calu-3 [9]; 10000 nM)	cell viability (HepG2 [10]; 1 nM)	cell viability (HepG2 [10]; 10 nM)	cell viability (HepG2 [10]; 100 nM)	cell viability (HepG2 [10]; 1000 nM)	cell viability (HepG2 [10]; 10000 nM)	relative viability EC50 (U2OS [11])	relative viability EC50 (Vero E6 [12])	relative viability EC50 (Caco-2 [13])	relative viability EC50 (Calu-3 [14])	relative viability EC50 (HepG2 [15])
O=C(O)[C@H]1CCCN(CCC=C(c2ccccc2)c2ccccc2)C1 (racemic)	0	0	0	0	0	98.6%	98.2%	98.1%	102%	91.3%	99.6%	100%	101%	102%	103%	95.9%	98.7%	102%	95.7%	94.9%	96.8%	98.5%	111%	90.9%	111%	107%	94.5%	83.9%	108%	99.2%	> 10 µM	> 10 µM	> 10 µM	> 10 µM	> 10 µM
CC(C)NC[C@@H](O)COc1ccc(CC(N)=O)cc1 (racemic) [atenolol-(+/-)]	0	0.1 ± 0.14	0.25 ± 0.35	0	0.05 ± 0.071	98.2 ± 3.5%	96 ± 3%	100.1 ± 0.28%	97 ± 0.71%	99.1 ± 3.7%	103 ± 4.4%	85.3 ± 10%	105 ± 4.5%	92.4 ± 13%	97 ± 5.9%	99.8 ± 9.3%	99 ± 11%	105 ± 7%	88.3 ± 0.99%	92.1 ± 0.85%	94.2 ± 4.5%	101 ± 11%	96.5 ± 3.4%	97.8 ± 2.3%	102 ± 2.6%	101 ± 10%	92 ± 14%	98.9 ± 9.5%	96.2 ± 8.2%	99.2 ± 18%	> 10 µM	> 10 µM	> 10 µM	> 10 µM	> 10 µM
CC(C)CC(NC(=O)OCC1c2ccccc2-c2ccccc21)C(=O)O (stereo in doubt)	0	0	0	0	0	91%	95.3%	105%	99.7%	101%	97.3%	102%	95.6%	94.5%	108%	85.2%	90.4%	104%	96.5%	98.2%	89.2%	102%	107%	102%	92.8%	90.3%	103%	90.1%	102%	97.8%	> 10 µM	> 10 µM	> 10 µM	> 10 µM	> 10 µM
CC(C)C(N)C(=O)O (stereo in doubt) [L-valine]	0	0	0	0	0	101%	92.7%	98.1%	93.5%	102%	96.8%	96.7%	96.6%	92.3%	95.5%	96%	91.3%	100%	98.7%	102%	102%	105%	95.9%	93%	99%	94.8%	94.5%	99%	96.9%	99.3%	> 10 µM	> 10 µM	> 10 µM	> 10 µM	> 10 µM
CC(C)(S)C(N)C(=O)O (stereo in doubt) [penicillamine-(racemic)]	0	0	0	0	0	103 ± 1.8%	97.4 ± 2.1%	100.2 ± 0.35%	98.5 ± 6.2%	101 ± 1.1%	104 ± 6.7%	102 ± 5.4%	102 ± 2.6%	99.9 ± 7.1%	101 ± 3.6%	105 ± 1.9%	98 ± 0.42%	96 ± 3.5%	93.7 ± 4.4%	98.55 ± 0.35%	95.7 ± 11%	94.9 ± 13%	98.3 ± 5%	106 ± 3.7%	108 ± 3.2%	103%	106%	110%	95%	100%	> 10 µM	> 10 µM	> 10 µM	> 10 µM	> 10 µM
NCCOB(c1ccccc1)c1ccccc1 [2-APB]	0	0	0	0	0	96%	95.6%	100%	100%	104%	110%	108%	97.4%	101%	105%	91%	93.3%	98.5%	94.3%	104%	101%	96.3%	99.1%	105%	103%	96.8%	112%	91.2%	93.4%	92.1%	> 10 µM	> 10 µM	> 10 µM	> 10 µM	> 10 µM
O=C(O)CNC(=O)c1ccccc1I [2-iodohippuric-acid]	0	0	0	0	0	100%	97.6%	97.8%	96.7%	102%	109%	107%	99.1%	102%	97.8%	103%	103%	93.1%	96.4%	105%	101%	106%	91.7%	104%	91.7%	101%	100%	97.3%	101%	91.3%	> 10 µM	> 10 µM	> 10 µM	> 10 µM	> 10 µM
